The values below come from ChEMBL document CHEMBL1156328, “Synthesis of cycloalkane-annelated 3-phenylsulfonyl-pyrazolo[1,5-a]pyrimidines and their evaluation as 5-HT6 receptor antagonists” (Bioorg Med Chem Lett, 2010).

What is called IC50 is the point on the concentration scale where inhibition reaches its midpoint. One may read the inhibition as the share of the control response that was lost under treatment.

Data set [1] concerns the target 5-hydroxytryptamine receptor 6 (Homo sapiens, UniProt P50406). The data set is described as follows: Antagonist activity at human 5HT6 receptor in HEK293 cells assessed as inhibition of serotonin-induced cAMP accumulation pretreated for 15 mins before serotonin challenge measured after 30 mins. Type of data set: functional, cell-based.
The target of data set [2] is T1, 5-hydroxytryptamine receptor 2B (Homo sapiens, UniProt P41595). The data set is described as follows: Agonist activity at human 5HT2B receptor in HEK293 cells assessed as stimulation of intracellular calcium mobilization by Fura-2AM dye based spectrofluorimetry. On the technique in general: Calcium assays in cells follow changes in intracellular calcium, usually with a dye or a luminescent sensor.
T1 sequence (P41595 whole entry): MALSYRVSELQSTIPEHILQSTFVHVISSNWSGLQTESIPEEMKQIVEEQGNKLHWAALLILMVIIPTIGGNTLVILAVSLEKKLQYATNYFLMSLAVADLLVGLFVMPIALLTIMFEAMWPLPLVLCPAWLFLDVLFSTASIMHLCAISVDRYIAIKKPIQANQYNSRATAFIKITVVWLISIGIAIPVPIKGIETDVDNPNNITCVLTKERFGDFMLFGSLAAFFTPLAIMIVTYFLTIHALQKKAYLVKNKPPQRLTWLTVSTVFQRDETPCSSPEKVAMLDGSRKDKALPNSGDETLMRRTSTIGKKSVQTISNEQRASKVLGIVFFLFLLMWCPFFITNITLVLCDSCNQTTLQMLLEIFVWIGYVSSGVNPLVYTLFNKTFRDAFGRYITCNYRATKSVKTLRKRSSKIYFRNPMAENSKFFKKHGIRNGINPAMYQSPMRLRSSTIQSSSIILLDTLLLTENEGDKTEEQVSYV

For data set [3], the target named is T1, 5-hydroxytryptamine receptor 2B. The data set can be described thus: Antagonist activity at human 5HT2B receptor in HEK293 cells assessed as inhibition of alpha-ME-5-HT-induced intracellular calcium mobilization pretreated for 15 secs before alphaME-5-HT addition by Fura-2AM dye based spectrofluorimetry.
The target in data set [4] is hERG (KCNH2) (Homo sapiens, UniProt Q12809). The data set is described as follows: Inhibition of human recombinant ERG at 10 uM by patch clamp assay. As to conditions: recombinant human ERG channel. Background: The patch-clamp technique gives a direct electrical read-out from membranes.
hERG (KCNH2), sequence (Q12809 whole entry): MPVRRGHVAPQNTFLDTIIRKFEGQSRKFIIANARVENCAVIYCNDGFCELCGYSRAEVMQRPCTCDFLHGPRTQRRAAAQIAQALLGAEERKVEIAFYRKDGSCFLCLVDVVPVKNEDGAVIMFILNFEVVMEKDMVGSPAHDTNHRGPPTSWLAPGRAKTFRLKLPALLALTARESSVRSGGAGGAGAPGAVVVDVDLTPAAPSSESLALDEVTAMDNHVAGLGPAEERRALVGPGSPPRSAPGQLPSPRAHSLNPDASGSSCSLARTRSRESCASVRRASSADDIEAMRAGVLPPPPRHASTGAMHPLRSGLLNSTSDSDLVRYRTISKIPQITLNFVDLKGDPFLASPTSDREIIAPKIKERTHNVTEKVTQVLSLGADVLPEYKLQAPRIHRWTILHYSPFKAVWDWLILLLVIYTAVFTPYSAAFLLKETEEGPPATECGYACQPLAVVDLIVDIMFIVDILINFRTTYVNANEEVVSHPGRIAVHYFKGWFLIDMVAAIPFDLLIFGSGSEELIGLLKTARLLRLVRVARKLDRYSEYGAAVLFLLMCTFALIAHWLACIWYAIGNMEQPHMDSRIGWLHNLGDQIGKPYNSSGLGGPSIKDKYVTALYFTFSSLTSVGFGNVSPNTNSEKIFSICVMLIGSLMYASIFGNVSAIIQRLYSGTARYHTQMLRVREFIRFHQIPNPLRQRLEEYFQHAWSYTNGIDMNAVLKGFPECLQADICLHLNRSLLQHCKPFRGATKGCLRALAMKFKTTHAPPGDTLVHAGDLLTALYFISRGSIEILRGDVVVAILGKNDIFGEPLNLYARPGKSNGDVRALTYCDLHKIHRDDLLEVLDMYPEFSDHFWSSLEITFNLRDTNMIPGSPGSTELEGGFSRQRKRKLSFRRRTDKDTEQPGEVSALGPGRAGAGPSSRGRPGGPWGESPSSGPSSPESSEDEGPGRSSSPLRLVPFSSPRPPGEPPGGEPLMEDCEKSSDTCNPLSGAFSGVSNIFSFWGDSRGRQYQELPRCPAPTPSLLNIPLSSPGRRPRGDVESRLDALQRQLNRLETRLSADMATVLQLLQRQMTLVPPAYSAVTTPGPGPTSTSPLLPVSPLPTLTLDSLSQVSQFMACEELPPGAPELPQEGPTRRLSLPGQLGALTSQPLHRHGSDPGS

The source made the active and inactive calls. No cut-off for these calls is given here.

5-hydroxytryptamine receptor 6, sequence (P50406 whole entry): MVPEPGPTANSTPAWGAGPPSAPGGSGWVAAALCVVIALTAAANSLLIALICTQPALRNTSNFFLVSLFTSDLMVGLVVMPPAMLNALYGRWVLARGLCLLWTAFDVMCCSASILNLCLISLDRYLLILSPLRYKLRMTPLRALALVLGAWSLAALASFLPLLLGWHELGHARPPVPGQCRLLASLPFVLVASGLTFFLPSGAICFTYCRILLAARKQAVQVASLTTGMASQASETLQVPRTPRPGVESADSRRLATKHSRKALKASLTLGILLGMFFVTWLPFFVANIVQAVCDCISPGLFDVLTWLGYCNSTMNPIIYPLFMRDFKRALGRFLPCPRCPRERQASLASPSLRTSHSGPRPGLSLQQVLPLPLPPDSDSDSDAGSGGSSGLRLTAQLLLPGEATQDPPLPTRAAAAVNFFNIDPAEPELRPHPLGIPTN

Take `CSc1nn2c3c(cnc2c1S(=O)(=O)c1ccccc1)CCCC3`: the IC50 in data set [1] is 7.5 nM; in data set [3], 411 nM. The result in data set [2] was inactive.
For `CSc1nn2c3c(cnc2c1S(=O)(=O)c1ccccc1)CCC3`, the figures for the IC50 in data set [1] and in data set [3] were 6 nM and 118 nM, respectively. Moreover, in data set [2], the result was inactive.
For `CSc1nn2c(C)c3c(nc2c1S(=O)(=O)c1ccccc1)CCCC3`, the inhibition at 10 µM in data set [4] was found to be 25%. Moreover, in data set [2], the outcome was inactive. The IC50 in data set [3] was 127 nM.
Turning to `CSc1nn2c3c(c(C)nc2c1S(=O)(=O)c1ccccc1)CCCC3`, the IC50 in data set [1] was 16.8 nM; in data set [3] it was 161 nM. The outcome in data set [2] was inactive.
For `CSc1nn2cc3c(nc2c1S(=O)(=O)c1ccccc1)CCCC3`, the IC50 in data set [1] worked out at 98.5 nM.
